Where two headings read alike, the source gives them in different places.
How the values were obtained:
AOC3 = AOC3 (Homo sapiens (Human), UniProt Q16853); test: MAO-Glo AOC3 assay (recombinant CHO cells overexpressing AOC3); type: biochemical
Description: The MAO-Glo™ Assay (commercial available from PROMEGA, # V1402) provides a sensitive method for the measurement of monoamine oxidase (MAO) activity (Valley, M. P. et al., 2006, Anal. Biochem. 359: 238-246) from a variety of tissues, biofluids or recombinant expressed or purified enzymes. As substrate a derivate of the beetle luciferin ((4S)-4,5-dihydro-2-(6-hydroxybenzothiazolyl)-4-thiazole-carboxylic acid) is used, which is oxidized at a primary amine moiety. After a spontaneous elimination and a catalyzed esterase reaction, the turnover of the luciferine by the luciferase is recorded as a signal of AOC3 activity.
An aliquot of 3 μL of the compound dilution is added to a 384 well plate (Optiplate, PS, flat bottom, white, PERKIN ELMER, #6007290) with a final DMSO concentration of 6.6%. Recombinant CHO cells, overexpressing the human (1500 cells/well), mouse (1000 cells/well) or rat (500 cells/well) AOC3 enzyme are diluted in reaction buffer and added in a volume of 15 μL to the wells. After incubation for 20 minutes at 37° C., 2 μL of MAO substrate (dissolved in DMSO at 16 mM, adjusted to assay concentration in reaction buffer to a final assay concentration of 20 μM) is added and further incubated for 60 minutes at 37° C. The turnover of the substrate is determined by the addition of 20 μL of the detection-mix which was generated by the addition of reconstitution buffer with esterase (PROMEGA, # V1402) to the luciferine detection reagent (PROMEGA, # V1402). After an incubation period of 20 minutes, the luminescent signal is measured with Envision 2104 Multilabel Reader (PERKIN ELMER).
In the following table the activity expressed as IC50 (nM) of compounds according to the invention is presented wherein the IC50 values are determined in the MAO-Glo™ AOC3 assay as described hereinbefore. The term “Example” refers to the example numbers according to the following experimental section.

hepatocytes = test: Metabolic stability assay in hepatocyte suspension; type: in vitro ADME; settings: 1 μM test compound
Experimental: The metabolic degradation of the test compound is assayed in a hepatocyte suspension. Hepatocytes (typically cryopreserved) are incubated in an appropriate buffer system (e.g. Dulbecco's modified eagle medium plus 3.5 μg glucagon/500 mL, 2.5 mg insulin/500 mL and 3.75 mg/500 mL hydrocortison) containing 5% species serum. Following a (typically) 30 min preincubation in an incubator (37° C., 10% CO2) 5 μl of test compound solution (80 μM; from 2 mM in DMSO stock solution diluted 1:25 with medium) are added into 395 μl hepatocyte suspension (cell density in the range 0.25-5 Mio cells/mL, typically 1 Mio cells/mL; final concentration of test compound 1 μM, final DMSO concentration 0.05%). The cells are incubated for six hours (incubator, orbital shaker) and samples (25 μl) are taken at 0, 0.5, 1, 2, 4 and 6 hours. Samples are transferred into acetonitrile and pelleted by centrifugation (5 min). The supernatant is transferred to a new 96-deepwell plate, evaporated under nitrogen and resuspended. Decline of parent compound is analyzed by HPLC-MS/MS
CLint is calculated as follows CL_INTRINSIC=Dose/AUC=(C0/CD)/(AUD+clast/k)×1000/60. C0: initial concentration in the incubation [μM], CD: cell density of vital cells [10e6 cells/mL], AUD: area under the data [μM×h], clast: concentration of last data point [μM], k: slope of the regression line for parent decline [h-1].
The calculated in vitro hepatic intrinsic clearance can be scaled up to the intrinsic in vivo hepatic Clearance and used to predict hepatic in vivo blood clearance (CL) by the use of a liver model (well stirred model). CL_INTRINSIC_INVIVO [ml/min/kg]=(CL_INTRINSIC [μL/min/10e6 cells]×hepatocellularity [10e6 cells/g liver]×liver factor [g/kg bodyweight])/1000 CL [ml/min/kg]=CL_INTRINSIC_INVIVO [ml/min/kg]×hepatic blood flow [ml/min/kg]/(CL_INTRINSIC_INVIVO [ml/min/kg]+hepatic blood flow [ml/min/kg])

[1] = Table 2, comparative compounds of EP 2 695 881, read-out: IC50
[2] = Table 3, comparative compounds of EP 2 695 881

Chain of AOC3 (Q16853 whole entry): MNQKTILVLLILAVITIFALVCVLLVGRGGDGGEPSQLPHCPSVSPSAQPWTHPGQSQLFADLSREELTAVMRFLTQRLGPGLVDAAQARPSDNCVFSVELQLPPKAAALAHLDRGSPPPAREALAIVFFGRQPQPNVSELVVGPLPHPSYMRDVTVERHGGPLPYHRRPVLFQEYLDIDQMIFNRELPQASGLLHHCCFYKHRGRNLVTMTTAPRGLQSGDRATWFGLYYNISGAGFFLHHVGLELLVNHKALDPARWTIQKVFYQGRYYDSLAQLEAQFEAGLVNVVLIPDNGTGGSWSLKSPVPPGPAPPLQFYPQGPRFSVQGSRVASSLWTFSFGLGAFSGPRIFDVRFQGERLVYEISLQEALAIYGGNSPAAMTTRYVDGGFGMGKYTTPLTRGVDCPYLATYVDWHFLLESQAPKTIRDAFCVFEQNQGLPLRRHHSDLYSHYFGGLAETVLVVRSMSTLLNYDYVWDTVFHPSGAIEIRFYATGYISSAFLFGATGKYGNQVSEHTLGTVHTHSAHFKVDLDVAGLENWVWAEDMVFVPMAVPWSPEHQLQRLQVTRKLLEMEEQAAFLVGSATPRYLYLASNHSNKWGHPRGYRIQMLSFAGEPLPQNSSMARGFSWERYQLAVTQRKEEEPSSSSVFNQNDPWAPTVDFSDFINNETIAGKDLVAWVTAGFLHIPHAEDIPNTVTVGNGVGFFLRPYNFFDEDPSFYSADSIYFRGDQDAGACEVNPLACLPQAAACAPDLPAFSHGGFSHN

Structure (SMILES) | IC50 (AOC3; Table 1, read-out: AOC3 IC50) | QH (hepatocytes; Table 4) | other results
N=C(N)NC(=O)OCc1ccnc(N2CC=C(c3ccc(F)cc3)CC2)c1F [Example 1.037] | 9 nM | 20% | 
N=C(N)NC(=O)OCc1ccnc(N2CCC(c3ccncc3)CC2)c1F [Example 1.010] | 3 nM | 16% | 
Cc1cccc(N2CCN(c3nccc(COC(=O)NC(=N)N)c3F)CC2)c1 [Example 1.031] | 9 nM | 23% | 
COc1ncc(N2CCN(c3nccc(COC(=O)NC(=N)N)n3)CC2)cn1 [Example 1.040] | 7 nM | 7% | 
N=C(N)NC(=O)OCc1ccnc(N2CCN(c3cccc(F)c3)CC2)c1F [Example 1.044] | 9 nM | 56% | 
N#CC1(c2ccccc2)CCN(c2nccc(COC(=O)NC(=N)N)c2F)CC1 [Example 1.050] | 2 nM | 10% | 
COc1ccc(N2CCN(c3cccc(COC(=O)NC(=N)N)c3F)CC2)cc1 [57 (227), reference compound] |  |  | IC50 (AOC3; [1]): 3.9 nM; QH (hepatocytes; [2]): 20%
N#Cc1ccc(N2CCN(c3nccc(COC(=O)NC(=N)N)c3F)CC2)cc1 [Example 1.055] | 2 nM | 16% | 
N=C(N)NC(=O)OCc1cccc(N2CCN(c3ccc(C(N)=O)cc3)CC2)c1F [reference compound] |  |  | IC50 (AOC3; [1]): 2.5 nM; QH (hepatocytes; [2]): 47%
Cc1cc(C)cc(N2CCN(c3nccc(COC(=O)NC(=N)N)c3F)CC2)c1 [Example 1.061] | 8 nM | 13% | 
COc1cnc(C2=CCN(c3nccc(COC(=O)NC(=N)N)c3F)CC2)nc1 [Example 1.064] | 6 nM | 14% | 
N=C(N)NC(=O)OCc1ccnc(N2CCN(c3ccncc3)CC2)c1F [Example 1.011] | 3 nM | <4% | 
COc1ncc(N2CCN(c3cccc(COC(=O)NC(=N)N)c3F)CC2)cn1 [126 (235), reference compound] |  |  | IC50 (AOC3; [1]): 3.9 nM; QH (hepatocytes; [2]): 11%
N#Cc1cccc(N2CCN(c3nccc(COC(=O)NC(=N)N)c3F)CC2)c1 [Example 1.054] | 1 nM | 14% | 
CC(=O)N1CCC(C2CN(c3cccc(COC(=O)NC(=N)N)n3)C2)CC1 [Example 1.016] | 10 nM | 6% | 
COc1ncc(N2CCN(c3cccc(COC(=O)NC(=N)N)n3)CC2)cn1 [Example 1.036] | 7 nM | 16% | 
N#Cc1ccc(N2CCN(c3nccc(COC(=O)NC(=N)N)c3F)CC2)nc1 [Example 1.056] | 4 nM | 12% | 
N=C(N)NC(=O)OCc1ccnc(N2CCC(c3ccc(F)cc3)CC2)c1F [Example 1.041] | 9 nM | 12% | 
N=C(N)NC(=O)OCc1ccnc(N2CCN(c3cncnc3)CC2)c1F [Example 1.017] | 3 nM | 6% | 
N=C(N)NC(=O)OCc1ccnc(N2CCN(c3ccccc3)C(=O)C2)c1F [Example 1.033] | 6 nM | 4% | 
N=C(N)NC(=O)OCc1ccnc(N2CCC(C3CCOCC3)CC2)c1F [Example 1.023] | 8 nM | 14% | 
COc1cccc(C2=CCN(c3nccc(COC(=O)NC(=N)N)c3F)CC2)c1 [Example 1.058] | 4 nM | 18% | 
Cc1cc(N2CCN(c3nccc(COC(=O)NC(=N)N)c3F)CC2)ccn1 [Example 1.039] | 2 nM | <4% | 
N#Cc1ccc(N2CCN(c3nccc(COC(=O)NC(=N)N)n3)CC2)cc1 [Example 1.027] | 2 nM | 9% | 
CC(=O)N1CCC(C2CN(c3nccc(COC(=O)NC(=N)N)c3F)C2)CC1 [Example 1.047] | 8 nM | <4% | 
N#Cc1cccc(C2CCN(c3nccc(COC(=O)NC(=N)N)c3F)CC2)c1 [Example 1.051] | 2 nM | 20% | 

Now from value to molecule, other results behind:

IC50 (AOC3; Table 1, read-out: AOC3 IC50) | QH (hepatocytes; Table 4) | Structure (SMILES) | other results
9 nM | 5% | N=C(N)NC(=O)OCc1ccnc(N2CCC(C3CCN(S(N)(=O)=O)CC3)CC2)c1F [Example 1.104] | 
5 nM | 9% | N=C(N)NC(=O)OCc1ccnc(N2CCN(c3ccc(C(F)(F)F)nn3)CC2)c1F [Example 1.099] | 
7 nM | 7% | CNC(=O)c1ccc(N2CCN(c3nccc(COC(=O)NC(=N)N)c3F)CC2)nc1 [Example 1.091] | 
6 nM | 8% | CS(=O)(=O)c1ccc(N2CCN(c3nccc(COC(=O)NC(=N)N)c3F)CC2)c(F)c1 [Example 1.106] | 
9 nM | 92% | COC(=O)c1ccc(N2CCN(c3nccc(COC(=O)NC(=N)N)c3F)CC2)nc1 [Example 1.092] | 
4 nM | 11% | N#Cc1ccc(N2CCN(c3nccc(COC(=O)NC(=N)N)c3F)CC2)c(F)c1 [Example 1.083] | 
7 nM | <4% | CN(C)C(=O)c1ccc(N2CCN(c3nccc(COC(=O)NC(=N)N)c3F)CC2)nc1 [Example 1.101] | 
7 nM | 11% | N=C(N)NC(=O)OCc1ccnc(N2CCN(c3ccc(C(N)=O)cn3)CC2)c1F [Example 1.086] | 
8 nM | <4% | CS(=O)(=O)c1ccc(N2CCN(c3nccc(COC(=O)NC(=N)N)c3F)CC2)nc1 [Example 1.103] | 
5 nM | 40% | COc1ccc(C2CCN(c3nccc(COC(=O)NC(=N)N)c3F)CC2)cc1 [Example 1.065] | 
5 nM | 23% | COc1ccc(N2CCN(c3nccc(COC(=O)NC(=N)N)c3F)CC2)cc1 [Example 1.067] | IC50 (AOC3; Table 2, compounds of the present invention, read-out: IC50): 4.6 nM; QH (hepatocytes; Table 3, compounds of the present invention): 10%
7 nM | 24% | N=C(N)NC(=O)OCc1ccnc(N2CCC(c3ccc(Cl)cc3)CC2)c1F [Example 1.074] | 
4 nM | 85% | CC(=O)c1ccc(N2CCN(c3nccc(COC(=O)NC(=N)N)c3F)CC2)nc1 [Example 1.085] | 
7 nM | 23% | COc1cccc(N2CCN(c3nccc(COC(=O)NC(=N)N)c3F)CC2)c1 [Example 1.068] | 
3 nM | 15% | COC(=O)N1CCC(C2CCN(c3nccc(COC(=O)NC(=N)N)c3F)CC2)CC1 [Example 1.095] | 
4 nM | 8% | N=C(N)NC(=O)OCc1ccnc(N2CCC(N3Cc4ccccc4C3=O)CC2)c1F [Example 1.089] | 
9 nM | 14% | N=C(N)NC(=O)OCc1ccnc(N2CCN(c3ccc(Cl)cn3)CC2)c1F [Example 1.078] | 
7 nM | 30% | N=C(N)NC(=O)OCc1ccnc(N2CCN(c3ccc(Cl)cc3)CC2)c1F [Example 1.077] | 

Reference: patent US10730850B2, “Pyridinylmethyl carbamimidoylcarbamate derivatives and their use as AOC3 inhibitors” (Boehringer Ingelheim International GmbH, priority 2016, dated 2020)
